# Source: ChEMBL document CHEMBL5331046, “Disulfiram and dithiocarbamate analogues demonstrate promising antischistosomal effects” (Eur J Med Chem, 2022)
# Activity calls are given as the source filed them. No cut-off for these calls is given here.
# Columns and labels:
# Schistosoma mansoni [1] = assay: Antischistosomal activity against Schistosoma mansoni couples at 100 uM measured upto 72 hrs by bright field microscopy; type: functional, organism-based
# Schistosoma mansoni [2] = assay: Antischistosomal activity against Schistosoma mansoni couples assessed as decrease in parasite motility at 25 uM measured upto 72 hrs by bright field microscopy; type: functional; parameters: scale not given: the % may be the effect or the level left
# Schistosoma mansoni [3] = assay: Antischistosomal activity against Schistosoma mansoni couples assessed as induction of weak phenotypes at 25 uM measured upto 72 hrs by bright field microscopy; type: functional, organism-based
# Schistosoma mansoni [4] = assay: Antischistosomal activity against Schistosoma mansoni couples assessed as reduction in pairing stability at 100 uM measured upto 72 hrs by bright field microscopy; type: functional
# Schistosoma mansoni [5] = assay: Antischistosomal activity against Schistosoma mansoni couples assessed as decrease in parasite motility at 100 uM measured upto 72 hrs by bright field microscopy; type: functional
# Schistosoma mansoni [6] = assay: Antischistosomal activity against Schistosoma mansoni couples assessed as inhibition of eggs production at 100 uM measured upto 72 hrs by bright field microscopy; type: functional; parameters: scale not given: the % may be the effect or the level left
# LS174T [7] = assay: Cytotoxicity against human LS174T cells assessed as reduction in cell vaibility upto 100 uM by WST-1 assay; type: toxicity, cell-based
# HepG2 [8] = assay: Cytotoxicity against human HepG2 cells assessed as reduction in cell viability upto 100 uM by WST-1 assay; type: toxicity, cell-based; settings: hepg2, 100 µM
# Schistosoma mansoni [9] = assay: Antischistosomal activity against Schistosoma mansoni couples assessed as pairing instability at 50 uM measured upto 72 hrs by bright field microscopy; type: functional
# Schistosoma mansoni [10] = assay: Antischistosomal activity against Schistosoma mansoni couples assessed as tegument damage upto 100 uM measured upto 72 hrs by bright field microscopy; type: functional, organism-based
# Schistosoma mansoni [11] = assay: Antischistosomal activity against Schistosoma mansoni couples at 25 uM measured upto 72 hrs by bright field microscopy; type: functional, organism-based
# Schistosoma mansoni [12] = assay: Antischistosomal activity against Schistosoma mansoni couples assessed as eggs deformation at 100 uM measured upto 72 hrs by bright field microscopy; type: functional
# Schistosoma mansoni [13] = assay: Antischistosomal activity against Schistosoma mansoni couples assessed as decrease in parasite motility at 50 uM measured upto 72 hrs by bright field microscopy; type: functional; parameters: scale not given: the % may be the effect or the level left
# Schistosoma mansoni [14] = assay: Antischistosomal activity against Schistosoma mansoni couples assessed as inhibition of eggs production at 50 uM measured upto 72 hrs by bright field microscopy; type: functional, organism-based
# LS174T [15] = assay: Cytotoxicity against human LS174T cells assessed as reduction in cell viability at 100 uM by WST-1 assay; type: toxicity, cell-based
# HepG2 [16] = assay: Cytotoxicity against human HepG2 cells assessed as reduction in cell vaibility at 100 uM by WST-1 assay; type: toxicity, cell-based; settings: hepg2, 100 µM
# Schistosoma mansoni [17] = assay: Antischistosomal activity against Schistosoma mansoni couples assessed as reduction in pairing stability at 50 uM measured upto 72 hrs by bright field microscopy; type: functional, organism-based
# Schistosoma mansoni [18] = assay: Antischistosomal activity against Schistosoma mansoni couples assessed as tegument damage at 100 uM measured upto 72 hrs by bright field microscopy; type: functional, organism-based
# Schistosoma mansoni [19] = assay: Antischistosomal activity against Schistosoma mansoni couples assessed as tegument damage at 50 uM measured upto 72 hrs by bright field microscopy; type: functional, organism-based
# Schistosoma mansoni [20] = assay: Antischistosomal activity against Schistosoma mansoni couples assessed as intestinal dilations and tegument damage at 50 uM measured upto 72 hrs by bright field microscopy; type: functional, organism-based
# Schistosoma mansoni [21] = assay: Antischistosomal activity against Schistosoma mansoni couples assessed as gut dilations at 50 uM measured upto 72 hrs by bright field microscopy; type: functional, organism-based
# Schistosoma mansoni [22] = assay: Antischistosomal activity against Schistosoma mansoni couples assessed as decrease in parasite motility at 15 uM measured upto 72 hrs by bright field microscopy; type: functional
# Schistosoma mansoni [23] = assay: Antischistosomal activity against Schistosoma mansoni couples assessed as reduction in pairing stability at 10 uM measured upto 72 hrs by bright field microscopy; type: functional, organism-based
# Schistosoma mansoni [24] = assay: Antischistosomal activity against Schistosoma mansoni couples assessed as decrease in parasite motility at 10 uM measured upto 72 hrs by bright field microscopy; type: functional, organism-based
# Schistosoma mansoni [25] = assay: Antischistosomal activity against Schistosoma mansoni couples assessed as decrease in parasite vitality at 10 uM measured upto 72 hrs by bright field microscopy; type: functional
# Schistosoma mansoni [26] = assay: Antischistosomal activity against Schistosoma mansoni couples assessed as inhibition of eggs production at 10 uM measured upto 72 hrs by bright field microscopy; type: functional, organism-based
# HepG2 [27] = assay: Cytotoxicity against human HepG2 cells assessed as reduction in cell vaibility at 25 uM by WST-1 assay; type: toxicity, cell-based; settings: hepg2, 25 µM
# LS174T [28] = assay: Cytotoxicity against human LS174T cells assessed as reduction in cell vaibility at 25 uM by WST-1 assay; type: toxicity, cell-based
# Schistosoma mansoni [29] = assay: Antischistosomal activity against Schistosoma mansoni couples assessed as inhibition of eggs production at 15 uM measured upto 72 hrs by bright field microscopy; type: functional; parameters: scale not given: the % may be the effect or the level left
# Schistosoma mansoni [30] = assay: Antischistosomal activity against Schistosoma mansoni couples assessed as decrease in parasite vitality at 15 uM measured upto 72 hrs by bright field microscopy; type: functional; parameters: scale not given: the % may be the effect or the level left
# Schistosoma mansoni [31] = assay: Antischistosomal activity against Schistosoma mansoni couples assessed as decrease in pairing stability at 15 uM measured upto 72 hrs by bright field microscopy; type: functional; parameters: scale not given: the % may be the effect or the level left
# Schistosoma mansoni [32] = assay: Antischistosomal activity against Schistosoma mansoni couples assessed as induction of phenotypes at 10 uM measured upto 72 hrs by bright field microscopy; type: functional, organism-based
# LS174T [33] = assay: Cytotoxicity against human LS174T cells assessed as reduction in cell vaibility at 50 uM by WST-1 assay; type: toxicity, cell-based
# HepG2 [34] = assay: Cytotoxicity against human HepG2 cells assessed as reduction in cell vaibility at 50 uM by WST-1 assay; type: toxicity, cell-based; settings: hepg2, 50 µM
structure (smiles),measurement,setting,value
CCN(CC)C(=S)SCc1ccc(C(=O)O)cc1,Activity,Schistosoma mansoni [1],inactive
Cl.N[C@@H](CO)C(=O)N1CCN(C(=S)SCc2ccc([N+](=O)[O-])cc2)CC1,Activity,Schistosoma mansoni [2],30%
same,Activity,Schistosoma mansoni [3],Active
CCN(CC)C(=S)SCC(=O)OC,Activity,Schistosoma mansoni [4],Active
CCN(CC)C(=S)SCCCc1ccccc1,Activity,Schistosoma mansoni [5],inactive
same,Activity,Schistosoma mansoni [6],100%
same,Activity,Schistosoma mansoni [4],100%
CCCCCCN(CCCCCC)C(=S)SCc1ccccc1,Activity,Schistosoma mansoni [1],inactive
CCC(CC)C(=O)SCc1ccccc1,Activity,Schistosoma mansoni [1],Active
CCN(CC)C(=S)SCCC1SCCS1,Activity,Schistosoma mansoni [5],>60%
same,Activity,LS174T [7],Non-Toxic
same,Activity,HepG2 [8],Non-Toxic
same,Activity,Schistosoma mansoni [9],>90%
same,Activity,Schistosoma mansoni [10],Active
CC(=O)N1CCN(C(=S)SCc2ccc([N+](=O)[O-])cc2)CC1,Activity,Schistosoma mansoni [11],inactive
S=C(SCc1ccccc1)N1CCCCC1,Activity,Schistosoma mansoni [6],Active
same,Activity,Schistosoma mansoni [4],Active
CCN(CC)C(=O)OCc1ccccc1,Activity,Schistosoma mansoni [12],~100%
CCN(CC)C(=S)SCCC1OCCO1,Activity,Schistosoma mansoni [5],inactive
same,Activity,Schistosoma mansoni [9],inactive
CCN(CC)C(=S)SCC(N)=O,Activity,Schistosoma mansoni [4],Active
CCN(CC)C(=S)SCCN1CCOCC1,Activity,Schistosoma mansoni [12],Active
same,Activity,Schistosoma mansoni [4],inactive
CCN(CC)C(=S)NCc1ccccc1,Activity,Schistosoma mansoni [1],inactive
CCN(CC)C(=S)SCc1ccc2ccccc2c1,Activity,Schistosoma mansoni [13],>50%
same,Activity,Schistosoma mansoni [14],Active
same,Activity,LS174T [15],Non-Toxic
same,Activity,HepG2 [16],Non-Toxic
same,Activity,Schistosoma mansoni [17],Active
CCN(CC)C(=S)SCc1cccc2ccccc12,Activity,Schistosoma mansoni [13],~30%
CCN(CC)C(=S)S/C=C/c1ccccc1,Activity,Schistosoma mansoni [18],Active
CCN(CC)C(=S)SCc1ccc(C#N)cc1,Activity,Schistosoma mansoni [2],Active
same,Activity,Schistosoma mansoni [14],Active
same,Activity,Schistosoma mansoni [19],Active
same,Activity,Schistosoma mansoni [20],Active
same,Activity,Schistosoma mansoni [21],Active
same,Activity,Schistosoma mansoni [17],Active
Cc1ccc(CN2CCN(C(=S)SCc3ccccc3)CC2)cc1,Activity,Schistosoma mansoni [1],Active
O=[N+]([O-])c1ccc(CSC(=S)N2CCN(S(=O)(=O)c3cccc4ccccc34)CC2)cc1,Activity,Schistosoma mansoni [22],inactive
CSCC[C@H](N)C(=O)N1CCN(C(=S)SCc2ccc([N+](=O)[O-])cc2)CC1.Cl,Activity,Schistosoma mansoni [2],60%
same,Activity,Schistosoma mansoni [23],Active
same,Activity,Schistosoma mansoni [24],inactive
same,Activity,Schistosoma mansoni [25],Active
same,Activity,Schistosoma mansoni [3],Active
same,Activity,Schistosoma mansoni [26],Active
same,Activity,HepG2 [27],Toxic
same,Activity,LS174T [28],Toxic
CCN(CC)C(=S)SCCCCCc1ccccc1,Activity,Schistosoma mansoni [6],Active
same,Activity,Schistosoma mansoni [4],inactive
CCCCS(=O)(=O)N1CCN(C(=S)SCc2ccc([N+](=O)[O-])cc2)CC1,Activity,Schistosoma mansoni [29],40%
same,Activity,Schistosoma mansoni [24],Active
same,Activity,Schistosoma mansoni [30],90%
same,Activity,Schistosoma mansoni [31],20%
same,Activity,Schistosoma mansoni [32],Active
same,Activity,Schistosoma mansoni [22],50%
CCN(CC)C(=S)SCCc1ccccc1,Activity,Schistosoma mansoni [5],inactive
same,Activity,Schistosoma mansoni [6],100%
same,Activity,Schistosoma mansoni [4],100%
S=C(SCc1ccccc1)N1CCN(c2ncccn2)CC1,Activity,Schistosoma mansoni [1],Active
CCN(CC)C(=S)SCc1ccc(-c2ccccc2)cc1,Activity,Schistosoma mansoni [6],Active
S=C(SCc1ccccc1)N1CCc2ccccc2C1,Activity,Schistosoma mansoni [1],inactive
CCN(CC)C(=S)Sc1ccccc1,Activity,Schistosoma mansoni [6],Active
same,Activity,Schistosoma mansoni [4],inactive
CCN(CC)C(=S)SCc1ccccc1,Activity,Schistosoma mansoni [5],50%
same,Activity,LS174T [33],Toxic
same,Activity,Schistosoma mansoni [6],100%
same,Activity,Schistosoma mansoni [2],30%
same,Activity,Schistosoma mansoni [4],100%
same,Activity,HepG2 [34],Toxic
O=[N+]([O-])c1ccc(CSC(=S)N2CCN(S(=O)(=O)C3CC3)CC2)cc1,Activity,Schistosoma mansoni [29],40%
same,Activity,Schistosoma mansoni [24],Active
same,Activity,Schistosoma mansoni [30],90%
same,Activity,Schistosoma mansoni [31],20%
same,Activity,Schistosoma mansoni [32],Active
same,Activity,Schistosoma mansoni [22],50%
CCN(CC)C(=O)SCc1ccccc1,Activity,Schistosoma mansoni [6],~90%
